Experimental data from US20090247646A1, “USE OF RESVERATROL AND DERIVATIVES THEREOF FOR PROMOTING THE WELLNESS STATE IN MAMMALS” (priority 2006, published 2009).

Test system: gene expression in heart tissue
Experiment: Genome-wide gene expression in heart tissue of old mice fed a resveratrol-supplemented diet (Affymetrix Mouse Genome 430 2.0 array)
Type: in vivo

Measured: Effect of resveratrol on changeing gene expression from old to young profile

Oc1ccc(/C=C/c2cc(O)cc(O)c2)cc1 [resveratrol, 3,4′,5-Trihydroxy-trans-stilbene]
>100%: 1415741_at TPA regulated locus | 1416113_at FK506 binding protein 8 | 1416167_at peroxiredoxin 4 | 1416647_at branched chain ketoacid dehydrogenase E1, alpha polypeptide | 1416648_at dynein, cytoplasmic, heavy chain 1 | 1416698_a_at CDC28 protein kinase 1 | 1416800_at transient receptor potential cation channel, subfamily M, member 7 | 1417149_at procollagen-proline, 2-oxoglutarate 4-dioxygenase (proline 4-hydroxylase), alpha II polypeptide | 1417502_at transmembrane 4 superfamily member 2 | 1417628_at suppressor of Ty 6 homolog (S. cerevisiae) | 1417947_at proliferating cell nuclear antigen | 1417968_a_at methyl-CpG binding domain protein 1 | 1417982_at insulin induced gene 2 | 1418128_at adenylate cyclase 6 | 1418468_at annexin A11 | 1418509_at carbonyl reductase 2 | 1418524_at pericentriolar material 1 | 1418595_at plasma membrane associated protein, S3-12 | 1418648_at EGL nine homolog 3 (C. elegans) | 1418663_at multiple PDZ domain protein | 1418706_at solute carrier family 38, member 3 | 1419034_at casein kinase II, alpha 1 polypeptide | 1419220_at cardiomyopathy associated 1 | 1419665_a_at nuclear protein 1 | 1420620_a_at ring finger protein 13 | 1420727_a_at trimethyllysine hydroxylase, epsilon | 1420834_at vesicle-associated membrane protein 2 | 1420896_at synaptosomal-associated protein 23 | 1420899_at RAB18, member RAS oncogene family | 1420920_a_at ADP-ribosylation factor 1 | 1421468_at potassium inwardly-rectifying channel, subfamily J, member 3 | 1422452_at Bcl2-associated athanogene 3 | 1422799_at HLA-B associated transcript 2 | 1423040_at basic leucine zipper and W2 domains 1 | 1423126_at ATPase, Na+/K+ transporting, beta 3 polypeptide | 1423220_at eukaryotic translation initiation factor 4E | 1423474_at topoisomerase (DNA) I | 1423607_at lumican | 1423845_at expressed sequence AI481750 | 1423898_a_at gene trap locus 6 | 1424164_at mitochondrial ribosomal protein L50 | 1425022_at ubiquitin specific protease 3 | 1425281_a_at delta sleep inducing peptide, immunoreactor | 1425507_at ADP-ribosylation factor related protein 1 | 1425977_a_at serine/threonine kinase 2 | 1426440_at dehydrogenase/reductase (SDR family) member 7 | 1426613_a_at U2 small nuclear ribonucleoprotein B | 1427006_at guanine nucleotide releasing factor 2 | 1427036_a_at eukaryotic translation initiation factor 4, gamma 1 | 1427045_at synaptopodin | 1427245_at ADP-ribosylation factor GTPase activating protein 1 | 1427874_at zinc finger protein 313 | 1429186_a_at cytidine and dCMP deaminase domain containing 1 | 1431054_at LSM6 homolog, U6 small nuclear RNA associated (S. cerevisiae) | 1433558_at disabled homolog 2 (Drosophila) interacting protein | 1433811_at myeloid/lymphoid or mixed lineage-leukemia translocation to 6 homolog (Drosophila) | 1433890_a_at HLA-B-associated transcript 3 | 1433904_at BCL2-antagonist/killer 1 | 1434930_at two pore channel 1 | 1434944_at dystrophia myotonica kinase, B15 | 1435472_at kringle containing transmembrane protein | 1435658_at solute carrier family 27 (fatty acid transporter), member 1 | 1435664_at zinc finger protein 397 | 1436960_at bromodomain containing 3 | 1437892_at Mus musculus transcribed sequences | 1444089_at spectrin beta 2 | 1445186_at stanniocalcin 2 | 1448119_at 2,3-bisphosphoglycerate mutase | 1448185_at homocysteine-inducible, endoplasmic reticulum stress-inducible, ubiquitin-like domain member 1 | 1448277_at polymerase (DNA directed), delta 2, regulatory subunit | 1448307_at Down syndrome critical region homolog 2 (human) | 1448424_at frizzled-related protein | 1448703_at LSM8 homolog, U6 small nuclear RNA associated (S. cerevisiae)
